From the supplement of paper PMC10331698
± gives the standard deviation of the averaged measurements.

How the values were obtained:
Test in all cases: level (log10 ratio to DMSO vehicle control); higher = higher biomarker level / cell amount than vehicle control
[1] = compound: NC(=O)C(F)(F)C(F)(F)C(F)(F)C(F)(F)F [Nonafluoropentanamide]; settings: in DMSO
Procedure: (§1)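 BioMAP Diversity Plus panel of 12 human primary cell co-culture systems (3C, 4H, LPS, SAg, BT, BF4T, BE3C, CASM3C, HDF3CGF, KF3CT, MyoF, Mphg). Compounds were added 1 h before stimulation and left for 24 h (MyoF 48 h; BT 72 h for soluble read-outs or 6 d for IgG). Biomarkers were read by ELISA, cytotoxicity by SRB, PBMC viability and proliferation by Alamar Blue. Each well value was divided by the mean of 8 DMSO control wells on the same plate and log10 transformed; duplicate blinded samples were tested at 4 concentrations.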

[2] = compound: NS(=O)(=O)C(F)(F)C(F)(F)C(F)(F)C(F)(F)C(F)(F)C(F)(F)F [Perfluorohexanesulfonamide]; settings: in DMSO
Procedure: as §1

[3] = compound: O=S(=O)(F)C(F)(F)C(F)(F)C(F)(F)C(F)(F)C(F)(F)C(F)(F)C(F)(F)C(F)(F)F [Perfluorooctanesulfonyl fluoride]; settings: in DMSO
Procedure: as §1

[4] = compound: O=C(O)C=CC(F)(C(F)(F)F)C(F)(F)F [3-(Perfluoroisopropyl)-2-propenoic acid]; settings: in DMSO
Procedure: as §1

[5] = compound: NC(=O)C(F)(F)C(F)(F)C(F)(F)C(F)F; settings: in DMSO
Procedure: as §1

[6] = compound: O=S(=O)(O)C(F)(F)C(F)(F)C(F)(F)C(F)(F)C(F)(F)C(F)(F)C(F)(F)C(F)(F)C(F)(F)C(F)(F)F [Sodium perfluorodecanesulfonate]; settings: in DMSO
Procedure: as §1

[7] = compound: OCC(F)(F)C(F)(F)C(F)(F)CO [Hexafluoroamylene glycol]; settings: in DMSO
Procedure: as §1

[8] = compound: FC(F)(F)C(F)(F)C(F)(F)C(F)(F)C(F)(F)C(F)(F)C(F)(F)I [1-Iodopentadecafluoroheptane]; settings: in DMSO
Procedure: as §1

[9] = compound: O=C(O)C(F)(F)C(F)(F)C(F)(F)C(F)(F)C(F)(F)C(F)(F)C(F)(F)C(F)(F)C(F)(F)C(F)F [11-H-Perfluoroundecanoic acid]; settings: in DMSO
Procedure: as §1

[10] = compound: FC(F)(F)C(F)(F)C(F)(F)CC1CO1 [1H,1H-Heptafluorobutyl epoxide]; settings: in DMSO
Procedure: as §1

[11] = compound: COC(=O)C(F)(F)C(F)(F)OC(F)(C(F)(F)F)C(F)(F)OC(F)=C(F)F [Methyl perfluoro(3-(1-ethenyloxypropan-2-yloxy)propanoate)]; settings: in DMSO
Procedure: as §1

[12] = compound: O=S(=O)(O)CCC(F)(F)C(F)(F)C(F)(F)C(F)(F)C(F)(F)C(F)(F)F [6:2 Fluorotelomer sulfonic acid]; settings: in DMSO
Procedure: as §1

[13] = compound: FC(F)(F)C(F)(F)C(F)(F)C(F)(F)C(F)(F)C(F)(F)CC1CO1 [3-(Perfluorohexyl)-1,2-epoxypropane]; settings: in DMSO
Procedure: as §1

[14] = compound: O=S(=O)(Cl)C(F)(F)C(F)(F)C(F)(F)C(F)(F)C(F)(F)C(F)(F)C(F)(F)C(F)(F)F [Perfluoro-1-octanesulfonyl chloride]; settings: in DMSO
Procedure: as §1

[15] = compound: C=C(C)C(=O)OCCC(F)(F)C(F)(F)C(F)(F)C(F)(F)C(F)(F)C(F)(F)F [6:2 Fluorotelomer methacrylate]; settings: in DMSO
Procedure: as §1

[16] = compound: FC(F)(F)C(F)(F)C(F)(F)CI [Heptafluorobutyl iodide]; settings: in DMSO
Procedure: as §1

[17] = compound: C=CC(=O)OCC(F)(F)C(F)(F)C(F)(F)COC(=O)C=C [1H,1H,5H,5H-Perfluoro-1,5-pentanediol diacrylate]; settings: 6700 nM; in DMSO
Procedure: as §1

[18] = compound: NC(=O)C(F)(F)C(F)(F)C(F)(F)C(F)(F)C(N)=O [Octafluoroadipamide]; settings: in DMSO
Procedure: as §1

[19] = compound: FC(F)(F)C(F)(F)CNCC(F)(F)C(F)(F)F [Bis(1H,1H-perfluoropropyl)amine]; settings: in DMSO
Procedure: as §1

In the case of HDF3CGF:CXCL8/IL-8, the “level (log10)” value ([1]; 6700 nM) is reported as -0.0045 ± 0.0035, the “level (log10)” value ([1]; 20000 nM) is reported as -0.0005 ± 0.0021 and the “level (log10)” value ([1]; 60000 nM) is reported as 0.0015 ± 0.005. The “level (log10)” value ([2]; 6700 nM) was 0.0015 ± 0.0021, the “level (log10)” value ([2]; 20000 nM) was 0.0035 ± 0.0021 and the “level (log10)” value ([2]; 60000 nM) was 0.017 ± 0.013. The “level (log10)” value ([3]; 6700 nM) was -0.002 ± 0.0028, the “level (log10)” value ([3]; 20000 nM) was -0.0015 ± 0.00071 and the “level (log10)” value ([3]; 60000 nM) was 0.0085 ± 0.0021. The “level (log10)” value ([4]; 6700 nM) was -0.008 ± 0.0042, the “level (log10)” value ([4]; 20000 nM) was 0.004 ± 0.011 and the “level (log10)” value ([4]; 60000 nM) was 0.0065 ± 0.013. For the same test system, the “level (log10)” value ([5]; 6700 nM) was -0.0085 ± 0.0035, the “level (log10)” value ([5]; 20000 nM) was 0.0015 ± 0.0078 and the “level (log10)” value ([5]; 60000 nM) was 0.0045 ± 0.018. For the same test system, the “level (log10)” value ([6]; 1500 nM) was -0.0055 ± 0.0035, the “level (log10)” value ([6]; 4400 nM) was -0.0095 ± 0.005 and the “level (log10)” value ([6]; 13000 nM) was 0.0165 ± 0.016. For the same test system, the “level (log10)” value ([6]; 40000 nM) was 0.023 ± 0.0028, the “level (log10)” value ([7]; 6700 nM) was -0.0325 ± 0.04 and the “level (log10)” value ([7]; 20000 nM) was -0.011 ± 0.0028. For the same test system, the “level (log10)” value ([7]; 60000 nM) was 0.009 ± 0.024, the “level (log10)” value ([8]; 6700 nM) was -0.0055 ± 0.00071 and the “level (log10)” value ([8]; 20000 nM) was -0.001. For the same test system, the “level (log10)” value ([9]; 6700 nM) was -0.009 ± 0.0071, the “level (log10)” value ([9]; 20000 nM) was -0.003 ± 0.016 and the “level (log10)” value ([10]; 6700 nM) was -0.0075 ± 0.022. For the same test system, the “level (log10)” value ([10]; 20000 nM) was -0.0115 ± 0.0078, the “level (log10)” value ([10]; 60000 nM) was 0.0005 ± 0.0078 and the “level (log10)” value ([11]; 6700 nM) was 0.0045 ± 0.011. For the same test system, the “level (log10)” value ([11]; 20000 nM) was 0.0245 ± 0.0064, the “level (log10)” value ([12]; 6700 nM) was -0.01 ± 0.014 and the “level (log10)” value ([12]; 20000 nM) was -0.007 ± 0.013. For the same test system, the “level (log10)” value ([12]; 60000 nM) was 0.008 ± 0.037, the “level (log10)” value ([13]; 6700 nM) was -0.0175 ± 0.0035 and the “level (log10)” value ([13]; 20000 nM) was 0.005 ± 0.0028. The “level (log10)” value ([13]; 60000 nM) was 0.0145 ± 0.0064, the “level (log10)” value ([14]; 6700 nM) was -0.008 ± 0.0014 and the “level (log10)” value ([14]; 20000 nM) was 0.0065 ± 0.0092. For the same test system, the “level (log10)” value ([14]; 60000 nM) was 0.0265 ± 0.012, the “level (log10)” value ([15]; 6700 nM) was 0.007 ± 0.018 and the “level (log10)” value ([15]; 20000 nM) was 0.0045 ± 0.015. The “level (log10)” value ([15]; 60000 nM) was 0.0035 ± 0.011, the “level (log10)” value ([16]; 6700 nM) was -0.003 ± 0.0057 and the “level (log10)” value ([16]; 20000 nM) was 0.0005 ± 0.00071. The “level (log10)” value ([16]; 60000 nM) was 0.0125 ± 0.0092, the “level (log10)” value [17] was -1.07 ± 0.012 and the “level (log10)” value ([18]; 6700 nM) was 0.006 ± 0.017. For the same test system, the “level (log10)” value ([18]; 20000 nM) was 0.0045 ± 0.0092, the “level (log10)” value ([18]; 60000 nM) was 0.007 ± 0.0028 and the “level (log10)” value ([19]; 6700 nM) was -0.003. For the same test system, the “level (log10)” value ([19]; 20000 nM) was -0.011 ± 0.0042 and the “level (log10)” value ([19]; 60000 nM) was 0.007 ± 0.016.
HDF3CGF:CXCL10/IP-10 was tested, and the “level (log10)” value ([1]; 6700 nM) was -0.012 ± 0.0014, the “level (log10)” value ([1]; 20000 nM) was -0.0055 ± 0.00071 and the “level (log10)” value ([1]; 60000 nM) was -0.004 ± 0.0014. For the same test system, the “level (log10)” value ([2]; 6700 nM) was -0.02 ± 0.037, the “level (log10)” value ([2]; 20000 nM) was -0.059 ± 0.037 and the “level (log10)” value ([2]; 60000 nM) was -0.185 ± 0.069. The “level (log10)” value ([3]; 6700 nM) was -0.0005 ± 0.0021, the “level (log10)” value ([3]; 20000 nM) was -0.015 ± 0.011 and the “level (log10)” value ([3]; 60000 nM) was -0.012 ± 0.014. The “level (log10)” value ([4]; 6700 nM) was -0.007 ± 0.034, the “level (log10)” value ([4]; 20000 nM) was 0.0025 ± 0.035 and the “level (log10)” value ([4]; 60000 nM) was -0.001 ± 0.027. For the same test system, the “level (log10)” value ([5]; 6700 nM) was -0.001 ± 0.0014, the “level (log10)” value ([5]; 20000 nM) was -0.0065 ± 0.0021 and the “level (log10)” value ([5]; 60000 nM) was 0.002 ± 0.011. The “level (log10)” value ([6]; 1500 nM) was -0.001 ± 0.027, the “level (log10)” value ([6]; 4400 nM) was -0.065 ± 0.0042 and the “level (log10)” value ([6]; 13000 nM) was -0.025 ± 0.02. For the same test system, the “level (log10)” value ([6]; 40000 nM) was 0.012, the “level (log10)” value ([7]; 6700 nM) was -0.009 and the “level (log10)” value ([7]; 20000 nM) was -0.0135 ± 0.029. The “level (log10)” value ([7]; 60000 nM) was -0.028 ± 0.051, the “level (log10)” value ([8]; 6700 nM) was 0.0025 ± 0.0021 and the “level (log10)” value ([8]; 20000 nM) was -0.026 ± 0.0071. For the same test system, the “level (log10)” value ([9]; 6700 nM) was -0.117 ± 0.011, the “level (log10)” value ([9]; 20000 nM) was -0.331 ± 0.0071 and the “level (log10)” value ([10]; 6700 nM) was -0.0275 ± 0.0078. For the same test system, the “level (log10)” value ([10]; 20000 nM) was -0.0285 ± 0.053, the “level (log10)” value ([10]; 60000 nM) was -0.054 ± 0.054 and the “level (log10)” value ([11]; 6700 nM) was -0.018 ± 0.062. The “level (log10)” value ([11]; 20000 nM) was -0.203 ± 0.03, the “level (log10)” value ([12]; 6700 nM) was -0.0075 ± 0.018 and the “level (log10)” value ([12]; 20000 nM) was -0.046 ± 0.021. The “level (log10)” value ([12]; 60000 nM) was -0.0325 ± 0.042, the “level (log10)” value ([13]; 6700 nM) was 0.005 ± 0.031 and the “level (log10)” value ([13]; 20000 nM) was 0.012 ± 0.034. The “level (log10)” value ([13]; 60000 nM) was -0.0095 ± 0.037, the “level (log10)” value ([14]; 6700 nM) was -0.0115 ± 0.0021 and the “level (log10)” value ([14]; 20000 nM) was -0.046 ± 0.021. For the same test system, the “level (log10)” value ([14]; 60000 nM) was -0.0365 ± 0.018, the “level (log10)” value ([15]; 6700 nM) was -0.0075 ± 0.016 and the “level (log10)” value ([15]; 20000 nM) was -0.019 ± 0.021. For the same test system, the “level (log10)” value ([15]; 60000 nM) was -0.0225 ± 0.026, the “level (log10)” value ([16]; 6700 nM) was 0.0035 ± 0.012 and the “level (log10)” value ([16]; 20000 nM) was -0.007 ± 0.011. The “level (log10)” value ([16]; 60000 nM) was -0.017 ± 0.014, the “level (log10)” value [17] was -0.821 ± 0.0057 and the “level (log10)” value ([18]; 6700 nM) was 0.011 ± 0.0028. The “level (log10)” value ([18]; 20000 nM) was -0.0045 ± 0.016, the “level (log10)” value ([18]; 60000 nM) was 0.031 ± 0.03 and the “level (log10)” value ([19]; 6700 nM) was 0.011 ± 0.011. For the same test system, the “level (log10)” value ([19]; 20000 nM) was -0.001 ± 0.0042 and the “level (log10)” value ([19]; 60000 nM) was 0.0265 ± 0.025.
